Source: patent US20190375708A1 (VenatoRx Pharmaceuticals, Inc., priority 2018, published 2019)

How the values were obtained:
[1] = In vitro cytotoxicity assay (MTT cell viability) in HepG2 cells; type: cell-based, human; settings: human
Experimental: To evaluate antiviral selectivity, the cytotoxic activity of each compound was determined using a standard cell viability assay performed on the parental HepG2 cell line. Cell viability was determined by measuring the conversion of 3-(4,5-dimethylthiazol-2-yl)-2,5-diphenyltetrazolium bromide (MTT) to the insoluble formazan salt crystal that occurs in live cells. Briefly, HepG2 cells were seeded in 96-well plates at a density of 20,000 cells per well in EMEM+10% FBS (complete growth medium) and allowed to adhere overnight in a 37° C., 5% CO2 humidified incubator. The next day, test agents were prepared by performing 8 half-log10 serial dilutions in 100% DMSO at 200× the final desired concentration in the assay. Compounds were tested over a range of concentrations from 30 μM to 1.0 nM in the assay. HepG2 cells were incubated in the presence of various concentrations of CAMs for 7 days in a 37° C., 5% CO2 humidified incubator. At the completion of the 7-day incubation period, MTT reagent was added to each well and the mixture was incubated for an additional 3-4 hours. At the completion of the incubation period, all wells were aspirated to remove the culture medium. The formazan crystals were solubilized from the cell monolayers with 100% DMSO. Plates were briefly mixed on an orbital shaker and absorbance was measured at 492 nm using a Perkin-Elmer EnVision multi-label plate reader. All absorbance values were converted to a percentage of the signal obtained from the vehicle treated controls. Absorbance values at 492 nm are directly proportional to the number of viable cells present in the sample. A CC50 value (cytotoxic concentration that results in loss of 50% cell viability) was calculated from the dose-response curve by 4-parameter, non-linear regression analysis using the GraphPad Prism software. The positive control compound, staurosporine, reduced the viability of HepG2 cells in a dose-dependent manner (CC50=100 nM).

[2] = test system: HBV replication in HepAD38 cells; test: Anti-HBV replication assay in HepAD38 cells (QPCR of extracellular HBV DNA); type: cell-based, HBV (genotype D, serotype ayw); settings: Hepatitis B virus, 168 h, 7 days incubation, extracellular HBV DNA by QPCR, read-out: Anti-HBV EC50
Experimental: The anti-HBV activity of the Capsid Assembly Modulators (CAMs) was evaluated in a cell based assay utilizing the human hepatoma cell line HepAD38 (Ladner, S K., et al., 1998). HepAD38 cells were derived from the parental line, HepG2, that were stably transfected with a construct containing an HBV genome (genotype D, serotype ayw) under the control of a tetracycline repressible CMV promoter. Upon removal of tetracycline, viral pre-genomic RNA (pgRNA) and mRNAs are expressed and infectious viral particles are assembled and secreted into the culture medium providing a reliable, robust system to measure multiple steps of the HBV life cycle. Disruption of capsid formation results in reduced levels of DNA-containing virus particles that are released into the culture supernatant. To quantify the effect of CAMs on HBV replication, we developed a sensitive QPCR-based assay that measures extracellular HBV DNA levels upon treatment of HepAD38 cells with various concentrations of test compounds.
HepAD38 cells were maintained in DMEM/F12 medium containing 10% FBS, 400 μg/mL G418 and 0.3 μg/mL tetracycline (tet+ media) to maintain repression of HBV replication. To evaluate each compound, HepAD38 cells were seeded into 24-well collagen coated culture plates (Corning BioCoat) at a density of 200,000 cells per well in 1 mL of medium without tetracycline (tet-media) and allowed to adhere overnight at 37° C., 5% CO2 in a humidified incubator. The following day, media was refreshed and a dose range of each compound was prepared by performing 1 log10 serial dilutions in 100% DMSO at 200× the desired assay concentration. Dilutions were then added to the cells resulting in a final dose range of 1 μM to 10 μM and the plates were returned to the incubator. Following 7 days of incubation, culture supernatants were harvested and HBV DNA levels were evaluated by QPCR and compared to the vehicle treated control wells (i.e. DMSO alone).
To quantify HBV DNA levels, cell culture supernatants were diluted 1:10 in sterile, nuclease-free water (Gibco). The diluted supernatants were subsequently added to a PCR master mix containing 1× Roche Light Cycler Master Mix, 0.5 μM forward primer, 0.5 μM reverse primer (Fwd: 5′-[…] (SEQ ID NO 1); Rev: 5′-[…] (SEQ ID NO 2)), 0.2 μM Roche Universal Probe Library Probe 25. The volume was brought to 20 μL with nuclease-free water and amplification of the HBV target sequence was performed using a Roche LightCycler 480 QPCR instrument. PCR extended out to 45 cycles with each cycle consisting of a denaturation step at 95° C. for 10 sec., followed by an annealing step at 60° C. for 10 sec. and a brief extension step at 72° C. for 1 sec.
Extracellular HBV DNA levels, expressed in copies/mL, were determined by comparison to a standard curve (10^2-10^9 copies/mL) using the Roche LightCycler analysis software. These values were subsequently converted to percent inhibition of HBV replication by dividing the HBV DNA levels in the experimental samples with those obtained from the vehicle control (˜1-2×10^5 copies/mL). Potency, expressed as an EC50 (the effective concentration required to inhibit 50% of HBV replication), was calculated from the dose-response curve using a 4-parameter non-linear regression analysis (GraphPad Prism). The nucleoside analog inhibitor entecavir was used as a positive control to validate each assay run. The EC50 value of entecavir in the HepAD38 assay was 0.5 nM, as previously reported in the literature.

Row | SMILES | CC50 at 7 days [1] | EC50 [2]
1 | Cc1c(C(=O)Nc2ccc(F)nc2)c(C)n(C)c1C(=O)C(=O)NC(C)(C)CN1CCOCC1 [Example 350, N-(6-fluoropyridin-3-yl)-1,2,4-trimethyl-5-(2-((2-methyl-1-morpholinopropan-2-yl)amino)-2-oxoacetyl)-1H-pyrrole-3-carboxamide] | > 30000 nM | 500 to 1000 nM
2 | COCC1(CNC(=O)C(=O)c2c(C)c(C(=O)Nc3ccc(F)c(C)c3)c(C)n2C)CCCCC1 [Example 358, N-(4-fluoro-3-methylphenyl)-5-(2-(((1-(methoxymethyl)cyclohexyl)methyl)amino)-2-oxoacetyl)-1,2,4-trimethyl-1H-pyrrole-3-carboxamide] | > 30000 nM | < 50 nM
3 | Cc1cc(NC(=O)c2c(C)c(C(=O)C(=O)N[C@H]3CCc4nc(N)sc4C3)n(C)c2C)ccc1F [Example 75, (S)-5-(2-((2-amino-4,5,6,7-tetrahydrobenzo[d]thiazol-6-yl)amino)-2-oxoacetyl)-N-(4-fluoro-3-methylphenyl)-1,2,4-trimethyl-1H-pyrrole-3-carboxamide] | 5000 to 30000 nM | < 50 nM
4 | COC(=O)[C@H](NC(=O)C(=O)c1c(C)c(C(=O)Nc2ccc(F)c(C)c2)c(C)n1C)[C@H](C)O [Example 28, methyl (2-(4-((4-fluoro-3-methylphenyl)carbamoyl)-1,3,5-trimethyl-1H-pyrrol-2-yl)-2-oxoacetyl)-D-threoninate] | > 30000 nM | < 50 nM
5 | Cc1cc(NC(=O)c2c(C)c(C(=O)C(=O)NC3(C)CCN(c4cnccn4)CC3)n(C)c2C)ccc1F [Example 715, N-(4-fluoro-3-methylphenyl)-1,2,4-trimethyl-5-(2-((4-methyl-1-(pyrazin-2-yl)piperidin-4-yl)amino)-2-oxoacetyl)-1H-pyrrole-3-carboxamide] | 5000 to 30000 nM | < 50 nM
6 | Cc1cc(NC(=O)c2c(C)c(C(=O)C(=O)NC3(CO)CCOC3)n(C)c2C)ccc1F (centres unmarked) [Example 13, N-(4-fluoro-3-methylphenyl)-5-(2-((3-(hydroxymethyl)tetrahydrofuran-3-yl)amino)-2-oxoacetyl)-1,2,4-trimethyl-1H-pyrrole-3-carboxamide] | > 30000 nM | < 50 nM
7 | Cc1cc(NC(=O)c2c(C)c(C(=O)C(=O)NC3CCN(c4ccncc4)CC3)n(C)c2C)ccc1F [Example 662, N-(4-fluoro-3-methylphenyl)-1,2,4-trimethyl-5-(2-oxo-2-((1-(pyridin-4-yl)piperidin-4-yl)amino)acetyl)-1H-pyrrole-3-carboxamide] | > 30000 nM | < 50 nM
8 | Cc1c(C(=O)Nc2ccc(F)nc2)c(C)n(C)c1C(=O)C(=O)N[C@H]1CC[C@](O)(C(F)(F)F)CC1 [Example 239] | > 30000 nM | 500 to 1000 nM
9 | Cc1cc(NC(=O)c2c(C)c(C(=O)C(=O)N[C@H](C(=O)O)[C@H](C)O)n(C)c2C)ccc1F [Example 51, (2-(4-((4-fluoro-3-methylphenyl)carbamoyl)-1,3,5-trimethyl-1H-pyrrol-2-yl)-2-oxoacetyl)-L-allothreonine] | > 30000 nM | 50 to 499 nM
10 | Cc1cc(NC(=O)c2c(Cl)c(C(=O)C(=O)N[C@H]3CCC[C@H]3O)n3c2CCC3)ccc1F [Example 547, 6-chloro-N-(4-fluoro-3-methylphenyl)-5-(2-(((1S,2R)-2-hydroxycyclopentyl)amino)-2-oxoacetyl)-2,3-dihydro-1H-pyrrolizine-7-carboxamide] | 5000 to 30000 nM | 50 to 499 nM
11 | Cc1cc(NC(=O)c2c(C)c(C(=O)C(=O)N[C@@H]3CC[C@@H](O)[C@@H]3O)n(CCF)c2C)ccc1F [Example 197] | > 30000 nM | 50 to 499 nM
12 | Cc1cc(NC(=O)c2cc(C(=O)C(=O)NCC(C)(C)O)n3c2CCCC3)ccc1F [Example 419, N-(4-fluoro-3-methylphenyl)-3-(2-((2-hydroxy-2-methylpropyl)amino)-2-oxoacetyl)-5,6,7,8-tetrahydroindolizine-1-carboxamide] | > 30000 nM | > 1000 nM
13 | Cc1cc(NC(=O)c2c(Cl)c(C(=O)C(=O)NC(C)(C)CO)n3c2CCC3)cnc1F [Example 575, 6-chloro-N-(6-fluoro-5-methylpyridin-3-yl)-5-(2-((1-hydroxy-2-methylpropan-2-yl)amino)-2-oxoacetyl)-2,3-dihydro-1H-pyrrolizine-7-carboxamide] | > 30000 nM | 500 to 1000 nM
14 | CC(=O)N1C[C@@H]2[C@H](C1)[C@H]2NC(=O)C(=O)c1c(C)c(C(=O)Nc2ccc(F)c(C)c2)c(C)n1C [Example 643, 5-(2-(((1R,5S,6s)-3-acetyl-3-azabicyclo[3.1.0]hexan-6-yl)amino)-2-oxoacetyl)-N-(4-fluoro-3-methylphenyl)-1,2,4-trimethyl-1H-pyrrole-3-carboxamide] | > 30000 nM | 50 to 499 nM
15 | Cc1cc(NC(=O)c2c(C)c(C(=O)C(=O)N[C@H]3CCC[C@H]3O)n3c2CCCC3)ccc1F [Example 440, N-(4-fluoro-3-methylphenyl)-3-(2-(((1S,2R)-2-hydroxycyclopentyl)amino)-2-oxoacetyl)-2-methyl-5,6,7,8-tetrahydroindolizine-1-carboxamide] | 5000 to 30000 nM | 50 to 499 nM
16 | COc1c(C(=O)Nc2ccc(F)c(F)c2)c(C)n(C)c1C(=O)C(=O)N[C@@H]1CCC[C@@H]1O [Example 384] | > 30000 nM | > 1000 nM
17 | Cc1cc(NC(=O)c2c(Cl)c(C(=O)C(=O)NC3(CO)CCC3)n3c2CCC3)ccc1F [Example 541, 6-chloro-N-(4-fluoro-3-methylphenyl)-5-(2-((1-(hydroxymethyl)cyclobutyl)amino)-2-oxoacetyl)-2,3-dihydro-1H-pyrrolizine-7-carboxamide] | > 30000 nM | < 50 nM
18 | Cc1cc(NC(=O)c2c(C)c(C(=O)C(=O)Nc3ccc(N4CCOCC4)nc3)n(C)c2C)ccc1F [Example 266, N-(4-fluoro-3-methylphenyl)-1,2,4-trimethyl-5-(2-((6-morpholinopyridin-3-yl)amino)-2-oxoacetyl)-1H-pyrrol-3-carboxamide] | > 30000 nM | 50 to 499 nM
19 | Cc1cc(NC(=O)c2c(C)c(C(=O)C(=O)NOC(C)(C)C)n(C)c2C)ccc1F [Example 70, 5-(2-(tert-butoxyamino)-2-oxoacetyl)-N-(4-fluoro-3-methylphenyl)-1,2,4-trimethyl-1H-pyrrole-3-carboxamide] | > 30000 nM | < 50 nM
